SMILES strings stand for the structures. Bounds are passed on as bounds.

Data on 52 molecules can be found in patent US10759816B2, “Heterocyclic compounds as RSV inhibitors” (Enanta Pharmaceuticals, Inc., priority 2016, dated 2020).

The subject of the assay is genotype A, "Long" strain RSV. Kind of assay: RSV-A in vitro cytoprotection assay in HEp-2 cells (ATPlite readout of cell viability). Type of assay: cell-based, Human respiratory syncytial virus. The conditions noted are these: human respiratory syncytial virus, HEp-2, HEp-2 cells, genotype A “Long” strain RSV, cytoprotection; read-out: Human RSV-A (“Long” strain) EC50. The source says: RSV is a single stranded negative sense RNA virus that causes respiratory tract infections which can be dangerous to infants, the elderly, and immunosuppressed individuals. Currently there is no vaccine, and therapeutic options are both costly and of limited effectiveness. These approved treatments are Ribavirin, and Palivizumab/Synagis (a monoclonal antibody). RSV has two genotypes, A and B, which differ primarily in the structure of the virus' surface “G” attachment protein. Our current primary screen focuses on RSV-A and uses an in vitro cytoprotection assay where compounds are added in 2-fold dilutions to cells which are then subjected to fully replicative viral particles. Cell viability is measured several days later along with separate measurements of compound cytotoxicity. This report focuses on the results of our most recent screening of compounds.
HEp-2 cells, (originally derived from tumors grown in irradiated-cortisonised weanling rats that had been injected with epidermoid carcinoma tissue from a person's larynx, but later found to be indistinguishable from HeLa cells by PCR DNA analysis), were used for the culturing of genotype A, “Long” strain RSV. Flasks were inoculated with RSV and viral stocks were collected once cytopathic effect (CPE) was greater than 90%. Viral stocks in 25% sucrose media were snap frozen using liquid nitrogen to increase viral stability. Viral stock titers were quantified by tissue culture infectious dose 50% (TCID50) using 8,000 cells per well and 3-fold viral dilutions across a 96-well plate, cultured for 4 days.
Following extensive parameter testing, the final assay is run as follows: HEp-2 cells are seeded into the inner 60 wells of a 96-well plate at 8,000 cells per well in a volume of 50 μL using Growth Media (DMEM without phenol red, 1% L-Glut, 1% Penn/Strep, 1% nonessential amino acids, 10% FBS). 2-Fold serial dilutions of control and test compounds are added to the wells in duplicate in a total volume of 25 μL. Viral stock is then added to the wells in a volume of 25 μL, bringing the total volume of each well to 100 μL. Each 96-well plate has a control column of 6 wells with cells and virus but no compound (negative control, max CPE), a column with cells but no compound or virus (positive control, minimum CPE), and a column with no cells or virus or compound (background plate/reagent control). The control wells with cells but no virus are given an additional 25 uL of growth media containing an equal quantity of sucrose as those wells receiving the viral stock in order to keep consistent in media and volume conditions. The outer wells of the plate are filled with 125 μL of growth media to act as a thermal and evaporative moat around the test wells. Following a 4-day incubation period, the plates are read using ATPlite (50 uL added per well), which quantifies the amount of ATP (a measure of cell health) present in each well. Assay plates are read using the Envision luminometer. In parallel, cytotoxicity is examined on an additional 96-well plate treated in an identical manner, but substituting the 25 μL of viral stock for 25 μL of growth media. […] EC50 ranges are as follows: A <0.4 μM; B 0.4-0.8 μM; C >0.8 μM.
Regarding `O=C(NC1CC1)c1cc2c(s1)-c1ccccc1N(C(=O)c1cccc(C3=CCN(C4COC4)CC3)n1)CC2` [Example 56], the EC50 is more than 800 nM.
In the case of `O=C(NC1CC1)c1cc2c(s1)-c1ccccc1N(C(=O)c1cccc(C3CCN(C4COC4)CC3)n1)CC2` [Example 57], the concentration giving a half-maximal response (EC50) fell in the range of 400 to 800 nM.
In the case of `CC(=O)N1CCC(c2cccc(C(=O)N3CCc4cc(C(=O)NC5CC5)sc4-c4ccccc43)n2)CC1` [Example 58], the concentration for a half-maximal effect (EC50) was 400 to 800 nM.
With `O=C(NC1CC1)c1cc2c(s1)-c1ccccc1N(C(=O)c1cccc(C3=CCOCC3)n1)CC2` [Example 59] the figure was 400 to 800 nM.
On to `O=C(NC1CC1)c1cc2c(s1)-c1ccccc1N(C(=O)c1cccc(C3CCOCC3)n1)CC2` [Example 60], for which the EC50 lay within 400 to 800 nM.
On to `O=C(NC1CC1)c1cc2c(s1)-c1ccccc1N(C(=O)c1cccc(NC3CCOCC3)n1)CC2` [Example 61], for which the concentration giving a half-maximal response (EC50) was more than 800 nM.
For the molecule `COc1ccc(-c2cccc(C(=O)N3CCc4cc(C(=O)NC5CC5)sc4-c4ccccc43)n2)cc1` [Example 62], the EC50 is 400 to 800 nM.
Regarding `CC(=O)c1ccc(-c2cccc(C(=O)N3CCc4cc(C(=O)NC5CC5)sc4-c4ccccc43)n2)cc1` [Example 63], the EC50 was in the range of 400 to 800 nM.
With `CC(C)(O)c1ccc(-c2cccc(C(=O)N3CCc4cc(C(=O)NC5CC5)sc4-c4ccccc43)n2)cc1` [Example 64] the figure was 400 to 800 nM; with `COc1ccc(-c2cccc(C(=O)N3CCc4cc(C(=O)NC5CC5)sc4-c4ccccc43)n2)cn1` [Example 65], less than 400 nM.
Consider `O=C(NC1CC1)c1cc2c(s1)-c1ccccc1N(C(=O)c1cccc(-c3ccc(N4CCOCC4)cc3)n1)CC2` [Example 66], for which the EC50 lay in the range of 400 to 800 nM.
For `O=C(NC1CC1)c1cc2c(s1)-c1ccccc1N(C(=O)c1cccc(-c3cccc(N4CCOCC4)c3)n1)CC2` [Example 67], the 50% effective concentration (EC50) was more than 800 nM.
With `O=C(NC1CC1)c1cc2c(s1)-c1ccccc1N(C(=O)c1cccc(-c3ccc(C(=O)N4CCOCC4)cc3)n1)CC2` [Example 68] the figure was 400 to 800 nM; with `O=C(NC1CC1)c1cc2c(s1)-c1ccccc1N(C(=O)c1cccc(-c3cccc(C(=O)N4CCOCC4)c3)n1)CC2` [Example 69], 400 to 800 nM; with `COc1ccc(-c2nc(C(=O)N3CCc4cc(C(=O)NC5CC5)sc4-c4ccccc43)ccc2C#N)cn1` [Example 70], more than 800 nM.
With `O=C(NC1CC1)c1cc2c(s1)-c1ccccc1N(C(=O)c1ccc(F)c(-c3ccnc(N4CCOCC4)c3)n1)CC2` [Example 71], the concentration for a half-maximal effect (EC50) was in the range of 400 to 800 nM.
Turning to `COc1cc(-c2cccc(C(=O)N3CCc4cc(C(=O)NC5CC5)sc4-c4ccccc43)n2)ccn1` [Example 72], the concentration giving a half-maximal response (EC50) was in the range of 400 to 800 nM.
With `O=C(NC1CC1)c1cc2c(s1)-c1ccccc1N(C(=O)c1cccc(-c3ccc(C(F)(F)F)nc3)n1)CC2` [Example 73], the EC50 is 400 to 800 nM.
For the molecule `COCCOc1ccc(-c2cccc(C(=O)N3CCc4cc(C(=O)NC5CC5)sc4-c4ccccc43)n2)cn1` [Example 74], the EC50 lay within 400 to 800 nM.
Consider `CC(C)Oc1ccc(-c2cccc(C(=O)N3CCc4cc(C(=O)NC5CC5)sc4-c4ccccc43)n2)cn1` [Example 75], for which the EC50 is 400 to 800 nM.
As to `O=C(NC1CC1)c1cc2c(s1)-c1ccccc1N(C(=O)c1cccc(-c3cnn(C4CCOCC4)c3)n1)CC2` [Example 76], the concentration giving a half-maximal response (EC50) lay within 400 to 800 nM.
For `O=C(NC1CC1)c1cc2c(s1)-c1ccccc1N(C(=O)c1cccc(-c3ccc(C4CC4)nc3)n1)CC2` [Example 77], the 50% effective concentration (EC50) was in the range of 400 to 800 nM.
With `N#Cc1ccc(-c2cccc(C(=O)N3CCc4cc(C(=O)NC5CC5)sc4-c4ccccc43)n2)cn1` [Example 78], the EC50 lay in the range of 400 to 800 nM.
With `O=C(NC1CC1)c1cc2c(s1)-c1ccccc1N(C(=O)c1cccc(-c3ccc(N4CCCC4)nc3)n1)CC2` [Example 80] the figure was more than 800 nM; with `O=C(NC1CC1)c1cc2c(s1)-c1ccccc1N(C(=O)c1cccc(-c3ccc(F)nc3)n1)CC2` [Example 81], 400 to 800 nM.
Turning to `CN(C)c1ccc(-c2cccc(C(=O)N3CCc4cc(C(=O)NC5CC5)sc4-c4ccccc43)n2)cn1` [Example 82], the 50% effective concentration (EC50) was more than 800 nM.
Consider `CNC(=O)c1ccc(-c2cccc(C(=O)N3CCc4cc(C(=O)NC5CC5)sc4-c4ccccc43)n2)cn1` [Example 83], for which the EC50 lay within 400 to 800 nM.
For `CN(C)c1cc(-c2cccc(C(=O)N3CCc4cc(C(=O)NC5CC5)sc4-c4ccccc43)n2)ccn1` [Example 84], the EC50 was 400 to 800 nM.
In the case of `O=C(NC1CC1)c1cc2c(s1)-c1ccccc1N(C(=O)c1cccc(-c3ccnc(N4CCOCC4)c3)n1)CC2` [Example 85], the EC50 was less than 400 nM.
For the molecule `O=C(NC1CC1)c1cc2c(s1)-c1ccccc1N(C(=O)c1cccc(-c3ccnc(N4CCCOCC4)c3)n1)CC2` [Example 86], the half-maximal effective concentration (EC50) is less than 400 nM.
For the molecule `O=C(NC1CC1)c1cc2c(s1)-c1ccccc1N(C(=O)c1cccc(-c3cccnc3N3CCOCC3)n1)CC2` [Example 87], the 50% effective concentration (EC50) lay within 400 to 800 nM.
With `O=C(NC1CC1)c1cc2c(s1)-c1ccccc1N(C(=O)c1cccc(-c3cccnc3N3CCCOCC3)n1)CC2` [Example 88] the figure was 400 to 800 nM; with `O=C(NC1CC1)c1cc2c(s1)-c1ccccc1N(C(=O)c1cccc(-c3ccc(N4CCOCC4)nc3)n1)CC2` [Example 89], 400 to 800 nM.
Turning to `O=C(NC1CC1)c1cc2c(s1)-c1ccccc1N(C(=O)c1cccc(-c3ccc(N4CCCOCC4)nc3)n1)CC2` [Example 90], the EC50 lay within 400 to 800 nM.
In the case of `O=C(NC1CC1)c1cc2c(s1)-c1ccccc1N(C(=O)c1cccc(-c3cc(N4CCOCC4)ncc3F)n1)CC2` [Example 91], the half-maximal effective concentration (EC50) was 400 to 800 nM.
With `O=C(NC1CC1)c1cc2c(s1)-c1ccccc1N(C(=O)c1cccc(-c3cnc(N4CCOCC4)c(F)c3)n1)CC2` [Example 92] the figure was 400 to 800 nM.
Consider `O=C(NC1CC1)c1cc2c(s1)-c1ccccc1N(C(=O)c1ccc(Cl)c(-c3ccnc(N4CCOCC4)c3)n1)CC2` [Example 93], for which the half-maximal effective concentration (EC50) is more than 800 nM.
As for `CNC(=O)c1cc2c(s1)-c1ccccc1N(C(=O)c1cccc(-c3ccc(OC)nc3)n1)CC2` [Example 94], the EC50 is more than 800 nM.
`COc1ccc(-c2cccc(C(=O)N3CCc4cc(C(=O)N(C)C)sc4-c4ccccc43)n2)cn1` [Example 95]: the EC50 is 400 to 800 nM.
As to `COc1ccc(-c2cccc(C(=O)N3CCc4cc(C(=O)NCC5CC5)sc4-c4ccccc43)n2)cn1` [Example 96], the EC50 is 400 to 800 nM.
With `COCCNC(=O)c1cc2c(s1)-c1ccccc1N(C(=O)c1cccc(-c3ccc(OC)nc3)n1)CC2` [Example 97] the figure was 400 to 800 nM.
For `CNC(=O)c1cc2c(s1)-c1ccccc1N(C(=O)c1cccc(N3CCCOCC3)n1)CC2` [Example 98], the concentration giving a half-maximal response (EC50) is less than 400 nM.
With `CN(C)C(=O)c1cc2c(s1)-c1ccccc1N(C(=O)c1cccc(N3CCCOCC3)n1)CC2` [Example 99] the figure was more than 800 nM; with `O=C(NCC1CC1)c1cc2c(s1)-c1ccccc1N(C(=O)c1cccc(N3CCCOCC3)n1)CC2` [Example 100], less than 400 nM.
Turning to `COCCNC(=O)c1cc2c(s1)-c1ccccc1N(C(=O)c1cccc(N3CCCOCC3)n1)CC2` [Example 101], the half-maximal effective concentration (EC50) was less than 400 nM.
`O=C(NC1CC1)c1cc2c(s1)-c1ccccc1N(S(=O)(=O)c1cccc(N3CCCOCC3)n1)CC2` [Example 102]: the concentration for a half-maximal effect (EC50) was more than 800 nM.
For `O=C(NC1CC1)c1cc2c(s1)-c1ccccc1N(S(=O)(=O)c1cccc(-c3ccnc(N4CCOCC4)c3)n1)CC2` [Example 103], the EC50 is more than 800 nM.
For `O=C(NC1CC1)c1ccc2c(c1)-c1ccccc1N(C(=O)c1cccc(N3CCCOCC3)n1)CC2` [Example 104], the 50% effective concentration (EC50) is more than 800 nM.
With `COc1ccc(-c2cccc(C(=O)N3CCc4ccc(C(=O)NC5CC5)cc4-c4ccccc43)n2)cn1` [Example 105], the EC50 was more than 800 nM.
Turning to `O=C(NC1CC1)c1cc2c(o1)-c1ccccc1N(C(=O)c1cccc(N3CCCOCC3)n1)CC2` [Example 106], the 50% effective concentration (EC50) was 400 to 800 nM.
For `COc1ccc(-c2cccc(C(=O)N3CCc4cc(C(=O)NC5CC5)oc4-c4ccccc43)n2)cn1` [Example 107], the EC50 lay in the range of 400 to 800 nM.
Regarding `O=C(NC1CC1)c1nc2c(s1)CCN(C(=O)c1cccc(N3CCCOCC3)n1)c1ccccc1-2` [Example 108], the EC50 lay within 400 to 800 nM.

A word on the EC50: it is the concentration needed to bring the measured effect to its halfway point.
